Holding throughout (assay): MIC in vitro
Holding throughout (type): cell-based

The subject of assay [1] is Staphylococcus aureus ATCC 25178. The settings on record: ATCC25178, Dextrose agar, 37° C., 20 hours. As to the method:
(§1) (G. L. Daquet and Y. A. Chabbect, Techniques en bacteriologie (Bacteriological techniques), vol. 3, Flammarion Medecine Sciences, Paris, 1972 and W. B. Hugo and A. D. Rusell, Pharmaceutical Microbiology, Blackwell Scientific Publications, London, (1977)). Antibiotic medium no. 1 (seed agar) (Oxoid CM 327) Tryptone-soya broth (Oxoid CM 129) Ringer's physiological solution 1/4 (oxoid BR 52) Dextrose agar (BBL-11165) 0.1 N NaOH "Staphylococcus aureus" ATCC 25178 Each of the microorganisms is seeded by streaking in tubes of Antibiotic medium No. 1 (seed agar), which are then incubated at 37° C. for 20 hours. Using a culture loop, the cultures are then seeded in tryptone-soyabroth and incubated at 37° C. for 20 hours. The culture obtained is diluted to 1/4 with Ringer's physiological solution, so as to obtain a standardized suspension of 10^7 -10^9 cfu/ml for each organism. Starting from a solution of 1,000 μg/ml in 0.1 N NaOH, each product is diluted in Dextrose agar (previously melted and maintained at 50° C.), with successive dilutions so as to obtain the following concentrations: 64--32--16--8--4--2--1--0.5--0.25--0.125 μg of derivative/ml medium. For each product, the solution of each concentration is subsequently distributed into Petri dishes 10 cm in diameter, with 10 ml of medium per dish and the same number of dishes as microorganisms to be tested. As soon as the medium has cooled, the dishes are seeded with the inoculations using 0.4 ml of inoculation per dish. They are spread with a Driglasky loop and the supernatant is removed. The seeded dishes are incubated at 37° C. for 20 hours.

Assay [2] deals with Staphylococcus aureus ATCC 5488/23. Conditions: ATCC5488, Dextrose agar, 37° C., 20 hours.
Description: as §1, with “5488/23” for “25178”

Assay [3] relates to Citrobacter freundii ATCC 11606. The settings on record: ATCC11606, Dextrose agar, 37° C., 20 hours. Here is the method:
as §1, with “"Citrobacter freundii"” for “"Staphylococcus aureus"”, “11606” for “25178”

This is an account of results in patent US4552882A, “7-(1-Pyrrolyl) derivatives of 1-ethyl-1,4-dihydro-4-oxoquinoline-3-carboxylic acids and 1-ethyl-1,4-dihydro-4-oxo-1,8-naphthyridine-3-carboxylic acids and their use as antimicrobial agents” (Provesan, SA, priority 1983, dated 1985).

Molecules are shown by their SMILES. In brackets after ≈: the same amount, converted by molar mass.

On to `CCn1cc(C(=O)O)c(=O)c2ccc(-n3cccc3)nc21` [Example 3, 1-ethyl-1,4-dihydro-4-oxo-7-(1-pyrrolyl)-1,8-naphthyridine-3-carboxylic acid], for which the values for the minimal inhibitory concentration (MIC) in assay [1], in assay [2] and in assay [3] were 4 µg/mL (≈ 14.1 µM), 8 µg/mL (≈ 28.2 µM) and 32 µg/mL (≈ 113 µM), respectively.
The like results for `CCn1cc(C(=O)O)c(=O)c2cc(F)c(-n3cccc3)cc21` [Example 2, 6-fluoro-7-(1-pyrrolyl)-1-ethyl-1,4-dihydro-4-oxo-3-quinolinecarboxylic acid] were, in that order, 0.25 µg/mL (≈ 0.833 µM), 0.25 µg/mL (≈ 0.833 µM) and 8 µg/mL (≈ 26.6 µM).
For `CCn1cc(C(=O)O)c(=O)c2cnc(N3CCNCC3)nc21` [Pipemidic acid, reference compound], in that order: 64 µg/mL (≈ 211 µM), 64 µg/mL (≈ 211 µM) and 4 µg/mL (≈ 13.2 µM).
`CCn1cc(C(=O)O)c(=O)c2ccc(-n3cccc3)cc21` [Example 1, 7-(1-pyrrolyl)-1-ethyl-1,4-dihydro-4-oxo-3-quinolinecarboxylic acid]: the figures for the MIC in assay [1], in assay [2] and in assay [3] were 1 µg/mL (≈ 3.54 µM), 1 µg/mL (≈ 3.54 µM) and 16 µg/mL (≈ 56.7 µM), respectively.
For the compound `CCn1cc(C(=O)O)c(=O)c2cc(F)c(-n3cccc3)nc21` [Example 4, 1-ethyl-1,4-dihydro-4-oxo-6-fluoro-7-(1-pyrrolyl)-1,8-naphthyridine-3-carboxylic acid], the MIC (as a rule, the smallest concentration in the dilution series that meets the test's criterion for growth inhibition) worked out at 0.5 µg/mL (≈ 1.66 µM) in assay [1], 0.5 µg/mL (≈ 1.66 µM) in assay [2] and 4 µg/mL (≈ 13.3 µM) in assay [3].
